Experimental data taken from US7912535B2, “Method and system for assessing repolarization abnormalities” (University of Rochester, priority 2006, dated 2011).
Marks after values point to notes of the source that are not given here.

Test system: IKr ion currents
Experiment: First validation: ECG repolarization changes (QTc, ERDc, LRDc) on sotalol versus baseline
Format: in vivo
Conditions: median (standard deviation); for ERDc 50%, Δ on drug - baseline / LRDc 50%, Δ on drug - baseline: individual correction formula
Excerpt: FIG. 2 illustrates one embodiment of a such a method for assessing repolarization abnormalities. At least two repolarization signals are identified 30 from a set of ECG signals. The ECG signals may be obtained from a variety of ECG capture devices as discussed above. The ECG signals may be obtained in “real-time” from a subject, or the ECG signals may be obtained from a database (which should be understood to include memory devices) storing previously obtained ECG signals.
Once the at least two repolarization signals are identified 30, principal component analysis 32 can be done on the repolarization signals to extract eigenvectors ev1 and ev2. Principal component analysis (PCA) is a way of identifying patterns in data, and is especially useful in dealing with multi-dimensional data, such as multiple repolarization signals from multiple ECG leads. PCA analysis is a mathematical technique which those skilled in the art will be familiar with, and results in a matrix of eigenvectors. As a summary of the PCA analysis, first, the mean is subtracted from each of the data dimensions. This produces a data set whose mean is zero. Next, a covariance matrix is calculated for the data. If the data has n-dimensions, then the covariance matrix will be a square n-by-n matrix. Mathematical constructs called eigenvectors and eigenvalues may be calculated for a square matrix, and so next, a set of eigenvectors and eigenvalues are calculated for the covariance matrix. For the n-by-n covariance matrix, there will be n eigenvectors. The eigenvectors are orthogonal to each other, and each has a corresponding eigenvalue. The eigenvectors can be thought of as a representation of the multi-dimension data. The eigenvector with the highest eigenvalue is the principal component of the data set. The eigenvectors may be sorted from highest to lowest, and the eigenvectors with the two highest eigenvalues may be referred to as ev1 and ev2 respectively.
Once the PCA analysis 32 has been completed, a maximum vector MV may be determined 34 based on a transformed ECG signal in a preferential plane defined by ev1 and ev2. Mathematically, MV is detected at time t=TMV, where equation 1 is fulfilled: MV=max ? {right arrow over (VECG)}(t)−{right arrow over (VECG)}(TQ) ? , Equation 1)
Referring again to FIG. 2, once the maximum vector MV has been determined, a repolarization duration which is based on the maximum vector MV is determined 36. The repolarization duration may be determined 36 by taking an arbitrary threshold percentage of the magnitude of MV and projecting the threshold magnitude relative to an endpoint of MV to determine a beginning point and an ending point on the transformed ECG signal in the plane defined by ev1 and ev2. An example of this process can be seen graphically in FIG. 3. In the example of FIG. 3, the arbitrary threshold percentage of the magnitude of MV is 30%. This threshold magnitude of 30% MV (or 30% Vmax) is projected in a circle or arc 38 around the endpoint of MV, which is labeled Vmax. Where the projected threshold 38 crosses 40 the transformed ECG signal 42 (or T-loop) on a first side of the endpoint of MV, we can define a beginning point. Since the data points are samples in time, the beginning point may be designated as the closest true data point 44 to the crossing point 40. Alternatively, the beginning point may be an interpolated data point based on the two closest data points 44 and 46. Where the projected threshold 38 crosses 48 the transformed ECG signal 42 (or T-loop) on a second side of the endpoint of MV, we can define an ending point. Since the data points are samples in time, the ending point may be designated as the closest true data point 50 to the crossing point 48. Alternatively, the ending point may be an interpolated data point based on the two closest data points 50 and 52. […]

## CC(C)NCC(O)c1ccc(NS(C)(=O)=O)cc1 (stereo not drawn) [sotalol]
42′-48′ after dosing
  QTc L II, Δ on drug - baseline: 4.0(16) ms
  ERDc 50%, Δ on drug - baseline: 5.1(14)* ms
  LRDc 50%, Δ on drug - baseline: 1.1(6.2)* ms
48′-54′ after dosing
  QTc L II, Δ on drug - baseline: 4.1(16) ms
  ERDc 50%, Δ on drug - baseline: 4.9(14)* ms
  LRDc 50%, Δ on drug - baseline: 0.6(5.2)* ms
54′-1 h after dosing
  QTc L II, Δ on drug - baseline: 4.3(16)* ms
  ERDc 50%, Δ on drug - baseline: 4.4(12) ms
  LRDc 50%, Δ on drug - baseline: 0.3(6.5) ms
1 h-1 h 6′ after dosing
  QTc L II, Δ on drug - baseline: 13(17)* ms
  ERDc 50%, Δ on drug - baseline: 9.5(16)** ms
  LRDc 50%, Δ on drug - baseline: 4.0(5.9)** ms
